Assay results taken from patent publication US20150266850A1 (E.I.DU PONT DE NEMOURS AND COMPANY, priority 2012, published 2015).
Marks after values point to notes of the source that are not given here.

How the values were obtained:
[1] = Photostability Example: aqueous photolysis under xenon arc lamp simulating natural sunlight for 24 hours, percent remaining relative to dark controls; format: physicochemical; settings: 0.670 μg/mL in 80/20 10 mM pH 7 phosphate buffer/acetonitrile, xenon arc lamp 24 hours
Protocol: Aqueous photolysis data is a simple proxy for photostability under field conditions. The following aqueous photolysis data supports the enhanced photostability of the tolyl fungicides of the present invention.
Test compound (0.670 μg/mL) dissolved in 80/20 10 mM pH 7 phosphate buffer/acetonitrile is added to 2-mL borosilicate glass HPLC vials. The addition of 20% acetonitrile is intended to ensure solubility of compounds with low aqueous solubility. Samples are exposed to light in an Atlas Ci65 Burner photolysis chamber fitted with a xenon arc lamp (6500 W) to simulate natural sunlight for 24 hours and compared with samples wrapped in aluminum foil to protect them from light under the same conditions. The 24-hour irradiation is equivalent to ˜2.6 days of average Delaware summer sunlight exposure. Samples are analyzed by HPLC and results are reported as percent remaining based on peak area relative to the dark controls.

[2] = system: Puccinia recondita f sp. tritici; assay: Test B: wheat leaf rust, preventive spray on wheat seedlings, visual disease rating; format: in vivo; settings: 100 = 100% disease control
Summary of the method: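 Test suspension in acetone/water 50/50 with 250 ppm Trem® 014, sprayed to run-off on wheat seedlings at 200 ppm (≈800 g/ha), or 40 or 50 ppm where marked. Inoculated next day with spores, held 24 h saturated at 20° C, then 7 days at 20° C; disease control rated visually, 0–100 versus controls.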

[3] = system: Erysiphe graminis f. sp. tritici; assay: Test A: wheat powdery mildew, preventive spray on wheat seedlings, visual disease rating; format: in vivo; settings: 100 = 100% disease control
Summary of the method: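 Wheat seedlings sprayed to run-off with compound in acetone/water with 250 ppm Trem 014 (200 ppm ≈ 800 g/ha; some at 40 or 50 ppm), inoculated next day with spore dust. After 8 days at 20° C, disease control rated visually, 0–100% relative to controls.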

Botrytis cinerea = assay: Test E: tomato botrytis, preventive spray on tomato seedlings, visual disease rating; format: in vivo; settings: 100 = 100% disease control
Summary of the method: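 Compounds in acetone/water (50/50) with 250 ppm Trem 014, sprayed to run-off on tomato seedlings at 200 ppm (≈800 g/ha) unless marked 40 or 50 ppm. Inoculated next day with B. cinerea spores; 48 h saturated atmosphere at 20°C, then 3 days at 27°C; visual rating, 100 = full control vs controls.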

Septoria tritici = assay: Test C: wheat leaf blotch, preventive spray on wheat seedlings, visual disease rating; format: in vivo; settings: 100 = 100% disease control
Summary of the method: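 Compounds in acetone (11% of final volume) suspended in acetone/water 50/50 with 250 ppm Trem® 014; 200 ppm (≈800 g/ha), some at 40 or 50 ppm, sprayed to run-off. Septoria tritici inoculated next day; 48 h saturated at 24° C., then 19 days at 20° C.; visual rating, 0–100% control vs untreated.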

Septoria nodorum = assay: Test D: wheat glume blotch, preventive spray on wheat seedlings, visual disease rating; format: in vivo; settings: 100 = 100% disease control
Summary of the method: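 Preventive test: wheat seedlings sprayed to run-off with compound suspension (acetone/water with 250 ppm Trem 014; 200 ppm, some at 40 or 50 ppm), inoculated with Septoria nodorum next day. Held 48 h saturated at 20° C, then 7 days at 20° C; visual rating 0-100% disease control versus controls.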

[4] = Blumeria graminis, 192 h, 200 ppm
[5] = Parastagonospora nodorum, 216 h, 200 ppm
[6] = Botrytis cinerea, 120 h, 200 ppm
[7] = Zymoseptoria tritici, 504 h, 200 ppm

Row | % Cmpd Remaining [1] | Compound | Test B disease control rating ([2]; 40 ppm (*)) | Test D disease control rating (Septoria nodorum; 40 ppm (*)) | Test A disease control rating ([3]; 40 ppm (*)) | Test E disease control rating (Botrytis cinerea; 40 ppm (*)) | Test C disease control rating (Septoria tritici; 40 ppm (*)) | other results
1 | 0% | COC(=O)NCc1cc(-c2ccn(-c3ccc(OC)cc3C)n2)ccc1Cl [18P] |  |  |  |  |  | 
2 | 5% | COC(=O)NCc1cc(-n2ccc(-c3ccc(OC)cc3OC)n2)ccc1F [23PP] |  |  |  |  |  | 
3 | 0% | COC(=O)NCc1cc(-n2ncc(-c3ccc(OC)cc3OC)n2)ccc1Cl [17P] |  |  |  |  |  | 
4 |  | COC(=O)NCc1cc(-c2ncn(-c3ccc(F)cc3F)n2)ccc1C [Compound 117] |  |  |  |  |  | pest or weed control at 200 ppm ([2]; 192 h, 200 ppm): 100%; pest or weed control at 200 ppm [3, 4]: 100%; melting point: 156 to 159 °C
5 | 64% | COC(=O)NCc1cc(-n2ccc(-c3ccc(OC)cc3C)n2)ccc1F [10PP] |  |  |  |  |  | 
6 | 0% | COC(=O)NCc1cc(-c2ccn(-c3ccc(OC)cc3OC)n2)ccc1Cl [24P] |  |  |  |  |  | 
7 | 78% | COC(=O)NCc1cc(-c2ccn(-c3ccc(OC)cc3OC)n2)ccc1C [compound 24] |  |  |  |  |  | Test B disease control rating ([2]; 200 ppm): 100%; Test A disease control rating ([3]; 200 ppm): 100%; Test E disease control rating (Botrytis cinerea; 200 ppm): 55%; Test C disease control rating (Septoria tritici; 200 ppm): 100%
8 |  | COC(=O)NCc1cc(-n2ccc(-c3ccc(Br)cc3Cl)n2)ccc1C [Cmpd 55] | 100* % | 100* % | 100* % | 38* % | 91* % | 
9 |  | COC(=O)NCc1cc(-n2ccc(-c3ccc(C)cc3Cl)n2)ccc1C [Cmpd 41] | 100* % | 100* % | 100* % | 36* % | 100* % | 
10 |  | COC(=O)NCc1cc(-n2ccc(-c3ccc(Cl)cc3F)n2)ccc1C [Cmpd 39] | 100* % | 100* % | 99* % | 53* % | 100* % | 
11 |  | COC(=O)NCc1cc(-c2ncn(-c3ccc(Cl)cc3Cl)n2)ccc1C [Compound 119] |  |  |  |  |  | pest or weed control at 200 ppm ([2]; 192 h, 200 ppm): 100%; pest or weed control at 200 ppm [3, 4]: 99%; melting point: 152 to 155 °C
12 |  | COC(=O)NCc1cc(-n2ccc(-c3ccc(OC)cc3O)n2)ccc1C [Cmpd 103] |  |  |  |  |  | Test B disease control rating ([2]; 200 ppm): 100%; Test D disease control rating (Septoria nodorum; 200 ppm): 100%; Test A disease control rating ([3]; 200 ppm): 48%; Test E disease control rating (Botrytis cinerea; 200 ppm): 0%; Test C disease control rating (Septoria tritici; 200 ppm): 74%
13 |  | COC(=O)NCc1cc(-n2ccc(-c3ccc(OC)cc3Br)n2)ccc1C [Cmpd 59] | 100* % | 100* % | 99* % | 52* % | 97* % | 
14 |  | COC(=O)NCc1cc(-c2ccn(-c3ccc(Cl)cc3OCC#N)n2)ccc1C [Cmpd 35] |  |  |  |  |  | Test B disease control rating ([2]; 200 ppm): 100%; Test D disease control rating (Septoria nodorum; 200 ppm): 100%; Test A disease control rating ([3]; 200 ppm): 92%; Test E disease control rating (Botrytis cinerea; 200 ppm): 41%; Test C disease control rating (Septoria tritici; 200 ppm): 100%
15 |  | C#CCOc1cc(Cl)ccc1-n1ccc(-c2ccc(C)c(CNC(=O)OC)c2)n1 [Cmpd 34] |  |  |  |  |  | Test B disease control rating ([2]; 200 ppm): 100%; Test D disease control rating (Septoria nodorum; 200 ppm): 100%; Test A disease control rating ([3]; 200 ppm): 100%; Test E disease control rating (Botrytis cinerea; 200 ppm): 91%; Test C disease control rating (Septoria tritici; 200 ppm): 100%
16 | 0% | COC(=O)NCc1cc(-n2ccc(-c3ccc(OC)cc3C)n2)ccc1Cl [10P] |  |  |  |  |  | 
17 |  | COC(=O)NCc1cc(-n2ncc(-c3ccc(Cl)cc3Cl)n2)ccc1C [Cmpd 86] | 100* % | 100* % | 99* % | 54* % | 93* % | 
18 |  | COC(=O)NCc1cc(-c2ncn(-c3ccc(OC)cc3C)n2)ccc1C [Compound 70, methyl N-[[5-[1-(4-methoxy-2-methylphenyl)-1H-1,2,4-triazol-3-yl]-2-methylphenyl]methyl]carbamate] |  |  |  |  |  | pest or weed control at 40 ppm ([2]; 192 h, 40 ppm (*)): 100%; pest or weed control at 40 ppm (Septoria nodorum; Parastagonospora nodorum, 216 h, 40 ppm (*)): 100%; pest or weed control at 40 ppm ([3]; Blumeria graminis, 192 h, 40 ppm (*)): 99%; pest or weed control at 40 ppm (Botrytis cinerea; Botrytis cinerea, 120 h, 40 ppm (*)): 84%; pest or weed control at 40 ppm (Septoria tritici; Zymoseptoria tritici, 504 h, 40 ppm (*)): 96%
19 |  | COC(=O)NCc1cc(-c2ccn(-c3ccc(Cl)cc3F)n2)ccc1C [Cmpd 65] | 100* % | 100* % | 100* % | 94* % | 98* % | 
20 |  | COC(=O)NCc1cc(-n2ncc(-c3ccc(F)cc3F)n2)ccc1C [Cmpd 67] | 100* % | 100* % | 100* % | 33* % | 98* % | 
21 |  | CCc1cc(OC)ccc1-n1ccc(-c2ccc(C)c(CNC(=O)OC)c2)n1 [Cmpd 26] |  |  |  |  |  | Test B disease control rating ([2]; 200 ppm): 100%; Test D disease control rating (Septoria nodorum; 200 ppm): 100%; Test A disease control rating ([3]; 200 ppm): 99%; Test E disease control rating (Botrytis cinerea; 200 ppm): 31%; Test C disease control rating (Septoria tritici; 200 ppm): 100%
22 |  | COC(=O)NCc1cc(-n2ccc(-c3ccc([N+](=O)[O-])cc3Cl)n2)ccc1C [Cmpd 110] | 100* % | 100* % | 72* % | 0* % | 93* % | 
23 |  | methyl N-[[5-[1-(4-methoxy-2-methylphenyl)-1H-1,2,4-triazol-3-yl]-2-methylphenyl]methyl]carbamate [Compound 70] |  |  |  |  |  | Test B disease control rating ([2]; 200 ppm): 100%; Test D disease control rating (Septoria nodorum; 200 ppm): 100%; Test A disease control rating ([3]; 200 ppm): 100%; Test E disease control rating (Botrytis cinerea; 200 ppm): 0%; Test C disease control rating (Septoria tritici; 200 ppm): 100%
24 | 0% | COC(=O)NCc1cc(-n2ccc(-c3ccc(OC)cc3OC)n2)ccc1Cl [23P] |  |  |  |  |  | 
25 |  | COC(=O)NCc1cc(-n2ccc(-c3ccc(F)cc3Cl)n2)ccc1C [Cmpd 40] | 100* % | 100* % | 100* % | 80* % | 100* % | 
26 |  | COC(=O)NCc1cc(-c2ccn(-c3ccc(Cl)cc3O)n2)ccc1C [Cmpd 33] |  |  |  |  |  | Test B disease control rating ([2]; 200 ppm): 94%; Test D disease control rating (Septoria nodorum; 200 ppm): 100%; Test A disease control rating ([3]; 200 ppm): 0%; Test E disease control rating (Botrytis cinerea; 200 ppm): 0%; Test C disease control rating (Septoria tritici; 200 ppm): 2%
27 |  | COC(=O)NCc1cc(-n2ccc(-c3ccc(F)cc3Br)n2)ccc1C [Cmpd 57] | 100* % | 100* % | 100* % | 63* % | 99* % | 
28 |  | COC(=O)NCc1cc(-c2ccn(-c3ccc(Cl)cc3OC)n2)ccc1C [Compound 28, methyl N-[[5-[1-(4-chloro-2-methoxyphenyl)-1H-pyrazol-3-yl]-2-methylphenyl]-methyl]carbamate] |  |  |  |  |  | pest or weed control at 200 ppm ([2]; 192 h, 200 ppm): 100%; pest or weed control at 200 ppm (Septoria nodorum; [5]): 100%; pest or weed control at 200 ppm [3, 4]: 100%; pest or weed control at 200 ppm (Botrytis cinerea; [6]): 57%; pest or weed control at 200 ppm (Septoria tritici; [7]): 100%
29 |  | COC(=O)NCc1cc(-n2ncc(-c3ccc(OC)cc3Cl)n2)ccc1C [Cmpd 68] | 100* % | 100* % | 100* % | 77* % | 99* % | 

Row | Compound | % Cmpd Remaining [1] | Test B disease control rating ([2]; 40 ppm (*)) | Test D disease control rating (Septoria nodorum; 40 ppm (*)) | Test A disease control rating ([3]; 40 ppm (*)) | Test E disease control rating (Botrytis cinerea; 40 ppm (*)) | Test C disease control rating (Septoria tritici; 40 ppm (*)) | other results
30 | COC(=O)NCc1cc(-n2ccc(-c3ccc(OC)cc3OC)n2)ccc1C [Compound 23, methyl N-[[5-[3-(2,4-dimethoxyphenyl)-1H-pyrazol-1-yl]-2-methylphenyl]methyl]carbamate] | 54% |  |  |  |  |  | pest or weed control at 200 ppm ([2]; 192 h, 200 ppm): 100%; pest or weed control at 200 ppm (Septoria nodorum; [5]): 100%; pest or weed control at 200 ppm [3, 4]: 100%; pest or weed control at 200 ppm (Botrytis cinerea; [6]): 66%; pest or weed control at 200 ppm (Septoria tritici; [7]): 100%
